The results in this text go back to patent publication US20240239813A1, “KRAS INHIBITORS AND PHARMACEUTICAL USES THEREOF” (RISEN (SUZHOU) PHARMA TECH CO., LTD., priority 2022, published 2024).

Molecules are shown by their SMILES.

This test concerns the target His-tagged Human KRAS^G12D (Homo sapiens (Human), UniProt P01116, G12D). The test can be described thus: HTRF KRAS G12D GTP binding assay. To be noted: displacement of GTP-Red tracer. As for the experimental part: KRAS^G12D was used in this assay.
The ability of a test compound to bind to KRAS^G12D was measured by using an HTRF KRAS^G12D GTP Binding Kit (Cisbio, 63ADK000CB27PEG). […] 5 μL of compound solution was added to each well after serial dilution, followed by addition of 5 μL of GDP (50 nM) solution. After 30 minutes incubation at room temperature, 1×6His Eu cryptate antibody solution and GTP-Red tracer were added to the plate, then incubated for another 30 minutes. The HTRF signal was measured with a VICTOR Nivo multimode plate reader according to the manufacturer's instructions. The percent inhibition was calculated using the following formula: […]
(where the “Maximum Signal” are wells containing DMSO without inhibitor; the “Minimum Signal” are wells containing reference inhibitory component (GDP); the “Test compound signal” are wells containing test compound (inhibitor) at established concentrations).
IC50 was determined by fitting percent inhibition at each inhibitor concentration to the four-parameter nonlinear logistic equation using GraphPad Prism.
(In general: In TR-FRET formats the signal depends on donor and acceptor labels being close together.)

Sequence of His-tagged Human KRAS^G12D (P01116-2 other isoform, or with tags, fused parts or gaps G12D): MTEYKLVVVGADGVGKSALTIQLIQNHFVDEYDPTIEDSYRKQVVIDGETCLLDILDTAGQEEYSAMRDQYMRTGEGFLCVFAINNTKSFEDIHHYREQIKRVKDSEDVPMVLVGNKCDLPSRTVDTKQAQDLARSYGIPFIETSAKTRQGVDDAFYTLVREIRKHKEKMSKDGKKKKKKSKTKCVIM

Usually IC50 stands for the point on the concentration scale where inhibition reaches its midpoint. A low value points to greater potency in that assay. In turn, `CCc1c(F)ccc2cc(O)cc(-c3ncc4c(N5CCCC6(CCO6)C5)nc(OC[C@@H]5C[C@@H](F)CN5C)nc4c3F)c12` (stereo partly shown) [Compound 3a] came in with an IC50 of 0.141 µM.
The molecule `CCc1c(F)ccc2cc(O)cc(-c3ncc4c(N5CCC[C@@H](OC)C5)nc(OC[C@@]56CCCN5C[C@H](F)C6)nc4c3F)c12` [Compound 5a] gave a 50% inhibitory concentration (IC50) of 0.652 µM.
For `CCc1c(F)ccc2cc(O)cc(-c3ncc4c(N5CCCC(O)CC5)nc(OCC5(CN(C)C)CC5)nc4c3F)c12` (stereo not shown) [Compound 44a] the value was 0.234 µM.
In turn, `CCc1c(F)ccc2cc(O)cc(-c3ncc4c(N5CCCC(Cl)(CCO)C5)nc(OC[C@@]56CCCN5C[C@H](F)C6)nc4c3F)c12` (stereo partly shown) [Compound 26] registered an IC50 of 1.53 µM.
`CN(C)CC1(COc2nc(N3CCC[C@]4(CCO4)C3)c3cnc(-c4ccc(F)c5sc(N)c(C#N)c45)c(F)c3n2)CC1` [Compound 35a]: the half-inhibitory concentration (IC50) was more than 1 µM.
`CCc1c(F)ccc2cc(O)cc(-c3ncc4c(N5CCC[C@]6(CCO6)C5)nc(OCC5(CN6CCC7(CCC7)CC6)CC5)nc4c3F)c12` [Compound 23a] had an IC50 of 0.0312 µM.
Take `CCc1c(F)ccc2cc(O)cc(-c3ncc4c(N5CCC[C@H]5CN5CCCC5)nc(OC[C@@]56CCCN5C[C@H](F)C6)nc4c3F)c12` [Compound 30]: the IC50 was more than 10 µM.
`CCc1c(F)ccc2cc(O)cc(-c3ncc4c(N5CCC[C@]6(CCO6)C5)nc(OCC5(CN6CCN(C)CC6)CC5)nc4c3F)c12` [Compound 12a] gave an IC50 of 0.0121 µM.
For `CCc1c(F)ccc2cc(O)cc(-c3ncc4c(N5CC6(CC(=O)C6)C5)nc(OC[C@@]56CCCN5C[C@H](F)C6)nc4c3F)c12` [Compound 44] the value was more than 1 µM; for `CN(C)CC1(COc2nc(N3CCC[C@]4(CCO4)C3)c3cc(Cl)c(-c4ccc(F)c5sc(N)c(C#N)c45)c(F)c3n2)CC1` [Compound 39a], more than 1 µM.
The molecule `CCc1c(F)ccc2cc(O)cc(-c3ncc4c(N5CCCC6(CCO6)C5)nc(OC[C@H](C)OC)nc4c3F)c12` (stereo partly shown) [Compound 11a] registered an IC50 of more than 1 µM.
`CCc1c(F)ccc2cc(O)cc(-c3ncc4c(NC5CC6(CCC6)C5)nc(OC[C@@]56CCCN5C[C@H](F)C6)nc4c3F)c12` [Compound 28] gave an IC50 of more than 10 µM.
For `CCc1c(F)ccc2cc(O)cc(-c3ncc4c(N5CC6(COC6)C5)nc(OC[C@@]56CCCN5C[C@H](F)C6)nc4c3F)c12` [Compound 54], the IC50 was more than 1 µM.
`CCc1c(F)ccc2cc(O)cc(-c3ncc4c(N5C[C@H]6C[C@@H]5C(=O)N6)nc(OC[C@@]56CCCN5C[C@H](F)C6)nc4c3F)c12` [Compound 46] registered an IC50 of more than 1 µM.
On to `CCc1c(F)ccc2cc(O)cc(-c3ncc4c(N5CC6CCC(C5)O6)nc(OC[C@@]56CCCN5C[C@H](F)C6)nc4c3F)c12` [Compound 13], for which the IC50 turned out to be 0.979 µM.
Turning to `CCc1c(F)ccc2cc(O)cc(-c3ncc4c(N5CCCC6(COC6)C5)nc(OC[C@@]56CCCN5C[C@H](F)C6)nc4c3F)c12` [Compound 50], the IC50 is 0.071 µM.
`CCc1c(F)ccc2cc(O)cc(-c3ncc4c(N5CC[C@@H](CO)C5)nc(OC[C@@]56CCCN5C[C@H](F)C6)nc4c3F)c12` [Compound 32] had an IC50 of more than 1 µM.
Next, `CCc1c(F)ccc2cc(O)cc(-c3ncc4c(N5CCC[C@H]5C(C)(C)O)nc(OC[C@@]56CCCN5C[C@H](F)C6)nc4c3F)c12` [Compound 45]: more than 1 µM; `CCc1c(F)ccc2cc(O)cc(-c3ncc4c(N5CCN(C(C)=O)[C@H](C)C5)nc(OC[C@@]56CCCN5C[C@H](F)C6)nc4c3F)c12` [Compound 31]: more than 10 µM; `Cc1ccc2[nH]ncc2c1-c1ccc2c(N3CCC[C@]4(CCO4)C3)nc(OCC3(CN(C)C)CC3)nc2c1F` [Compound 14a]: more than 1 µM.
On to `CCc1c(F)ccc2cc(O)cc(-c3ncc4c(N5CCC[C@]6(CCO6)C5)nc(OCC5(CN6CCC6)CC5)nc4c3F)c12` [Compound 13a], for which the IC50 stood at 0.0132 µM.
For `CCc1c(F)ccc2cc(O)cc(-c3ncc4c(N5CCC[C@]6(CCO6)C5)nc(OCC5(CN6CCC(F)(F)CC6)CC5)nc4c3F)c12` [Compound 30a] the value was 0.0416 µM.
As for `CCc1c(F)ccc2cc(O)cc(-c3ncc4c(N5CCCC(OC)CC5)nc(OCC5(CN(C)C)CC5)nc4c3F)c12` (stereo not shown) [Compound 40a], the IC50 turned out to be 0.424 µM.
As to `CCc1c(F)ccc2cc(O)cc(-c3ncc4c(N5CC6(CCC6=O)C5)nc(OC[C@@]56CCCN5C[C@H](F)C6)nc4c3F)c12` [Compound 112], the IC50 was more than 1 µM.
The molecule `CCc1c(F)ccc2cc(O)cc(-c3ncc4c(N5C6CCC5CC6)nc(OC[C@@]56CCCN5C[C@H](F)C6)nc4c3F)c12` [Compound 15] had an IC50 of more than 1 µM.
`CCc1c(F)ccc2cc(O)cc(-c3ncc4c(N5CC6(CCC6O)C5)nc(OC[C@@]56CCCN5C[C@H](F)C6)nc4c3F)c12` (stereo partly shown) [Compound 110] yielded an IC50 of more than 1 µM.
For `CCc1c(F)ccc2cc(O)cc(-c3ncc4c(N5CCCC5c5cccnc5)nc(OC[C@@]56CCCN5C[C@H](F)C6)nc4c3F)c12` (stereo partly shown) [Compound 24] the value was more than 10 µM; for `CCc1c(F)ccc2cc(O)cc(-c3ncc4c(N5CCC[C@]6(CCO6)C5)nc(OCC5(CC(N)=O)CC5)nc4c3F)c12` [Compound 31a], 0.518 µM; for `CCc1c(F)ccc2cc(O)cc(-c3ncc4c(N5C6CCC5COC6)nc(OC[C@@]56CCCN5C[C@H](F)C6)nc4c3F)c12` [Compound 12], more than 1 µM.
In the case of `CCc1c(F)ccc2cc(O)cc(-c3ncc4c(N5CCC[C@H]5C(=O)O)nc(OC[C@@]56CCCN5C[C@H](F)C6)nc4c3F)c12` [Compound 8], the IC50 was more than 1 µM.
`CCc1c(F)ccc2cc(O)cc(-c3ncc4c(N5C[C@@H](N)C[C@H]5CO)nc(OC[C@@]56CCCN5C[C@H](F)C6)nc4c3F)c12` [Compound 33] registered an IC50 of more than 1 µM.
Molecule `CCc1c(F)ccc2cc(O)cc(-c3ncc4c(N5C[C@@H]6C[C@@H](O)[C@H]5C6)nc(OC[C@@]56CCCN5C[C@H](F)C6)nc4c3F)c12` [Compound 27] showed an IC50 of more than 10 µM.
On to `CCc1c(F)ccc2cc(O)cc(-c3ncc4c(N5CC(F)(F)C[C@H]5CO)nc(OC[C@@]56CCCN5C[C@H](F)C6)nc4c3F)c12` [Compound 21], for which the IC50 was more than 10 µM.
For `CCc1c(F)ccc2cc(O)cc(-c3ncc4c(N5CCCCC(OC)C5)nc(OCC5(CN(C)C)CC5)nc4c3F)c12` (stereo not shown) [Compound 45a] the value was more than 1 µM.
Take `CCc1c(F)ccc2cc(O)cc(-c3ncc4c(N5CCCC(C#N)CC5)nc(OCC5(CN(C)C)CC5)nc4c3F)c12` (stereo not shown) [Compound 42a]: the IC50 was more than 1 µM.
On to `CCc1c(F)ccc2cc(O)cc(-c3ncc4c(N5CCCCC(O)C5)nc(OCC5(CN(C)C)CC5)nc4c3F)c12` (stereo not shown) [Compound 46a], for which the IC50 was determined as 0.683 µM.
Take `CCc1c(F)ccc2cc(O)cc(-c3ncc4c(N5CCC6(CCO6)C5)nc(OC[C@@]56CCCN5C[C@H](F)C6)nc4c3F)c12` (stereo partly shown) [Compound 62]: the IC50 is more than 1 µM.
On to `CCc1c(F)ccc2cc(O)cc(-c3ncc4c(N5CC6(CCO6)C5)nc(OC[C@@]56CCCN5C[C@H](F)C6)nc4c3F)c12` [Compound 6a], for which the half-maximal inhibitory concentration (IC50) is more than 1 µM.
In turn, `CCc1c(F)ccc2cc(O)cc(-c3ncc4c(N5CCC[C@]6(CCO6)C5)nc(OCC5(CN6CC(F)(F)C6)CC5)nc4c3F)c12` [Compound 28a] displayed an IC50 of 0.159 µM.
`CCc1c(F)ccc2cc(O)cc(-c3ncc4c(N5C[C@H](N)C[C@H]5CO)nc(OC[C@@]56CCCN5C[C@H](F)C6)nc4c3F)c12` [Compound 55]: the IC50 was more than 1 µM.
In turn, `CCc1c(F)ccc2cc(O)cc(-c3ncc4c(N5CC6CC(CO)(C6)C5)nc(OC[C@@]56CCCN5C[C@H](F)C6)nc4c3F)c12` [Compound 7a] returned an IC50 of more than 1 µM.
For `CCc1c(F)ccc2cc(O)cc(-c3ncc4c(N5CCC[C@]6(CCO6)C5)nc(OCC5(N(C)C)CC5)nc4c3F)c12` [Compound 37a] the value was 0.121 µM; for `CCc1c(F)ccc2cc(O)cc(-c3ncc4c(N5CC[C@H](CO)C5)nc(OC[C@@]56CCCN5C[C@H](F)C6)nc4c3F)c12` [Compound 48], more than 1 µM; for `CCc1c(F)ccc2cc(O)cc(-c3ncc4c(N5C6CCCC5CC6)nc(OC[C@@]56CCCN5C[C@H](F)C6)nc4c3F)c12` [Compound 17], more than 1 µM.
`CCc1c(F)ccc2cc(O)cc(-c3ncc4c(N5C[C@H]6C[C@@H]5[C@@H](O)C6)nc(OC[C@@]56CCCN5C[C@H](F)C6)nc4c3F)c12` [Compound 37]: the IC50 was more than 1 µM.
`CCc1c(F)ccc2cc(O)cc(-c3ncc4c(N5CCCC6(C5)OCCO6)nc(OC[C@@]56CCCN5C[C@H](F)C6)nc4c3F)c12` [Compound 117] came in with an IC50 of 0.373 µM.
As to `CCc1c(F)ccc2cc(O)cc(-c3ncc4c(N(C)CC(C)(C)O)nc(OCC5(CN(C)C)CC5)nc4c3F)c12` [Compound 32a], the IC50 amounted to 0.481 µM.
Take `Nc1cc(Cl)c(C(F)(F)F)c(-c2ncc3c(N4CCCC5(COC5)C4)nc(OC[C@@]45CCCN4C[C@H](F)C5)nc3c2F)c1` [Compound 63]: the IC50 was more than 1 µM.
Next, `CCc1c(F)ccc2cc(O)cc(-c3ncc4c(N5CCC6(CCOC6)C5)nc(OC[C@@]56CCCN5C[C@H](F)C6)nc4c3F)c12` (stereo partly shown) [Compound 1a]: 0.752 µM; `CCc1c(F)ccc2cc(O)cc(-c3ncc4c(N5CCCC56COC6)nc(OC[C@@]56CCCN5C[C@H](F)C6)nc4c3F)c12` [Compound 14]: more than 1 µM.
In turn, `CCc1c(F)ccc2cc(O)cc(-c3ncc4c(N5CCC6(CCC6=O)CC5)nc(OC[C@@]56CCCN5C[C@H](F)C6)nc4c3F)c12` [Compound 59] came in with a 50% inhibitory concentration (IC50) of more than 1 µM.
In turn, `CCc1c(F)ccc2cc(O)cc(-c3ncc4c(N5CCCC(c6ccccc6)C5)nc(OC[C@@]56CCCN5C[C@H](F)C6)nc4c3F)c12` (stereo partly shown) [Compound 20] showed an IC50 of more than 10 µM.
